Results: PubChem BioAssay AID252 (DTP/NCI, 2004)
Several values for one entry are separate records, joined by “and”; a condition that tells them apart may be missing. Equal values may be shown once. Toxic doses and inconclusive results are not listed. How the source made its calls: active means survival T/C of 150% or more; inactive means T/C below 125% in these data.

System: BDF1 mice, intracerebral L1210 leukemia, survival T/C
Test: NCI In Vivo Anticancer Drug Screen. Data for tumor model L1210 Leukemia (intracerebral) in B6D2F1 (BDF1) mice
Settings: endpoint: mean survival time, higher = longer survival
In short: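 Antitumour effect is judged in mice with transplanted tumour by comparing survival of treated (T) against vehicle-dosed (C) groups as T/C.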

[1] = dose: 25.0 mg/kg/injection, schedule: Q04DX003 (ip), vehicle: saline
[2] = dose: 50.0 mg/kg/injection, schedule: Q04DX003 (ip), vehicle: saline
[3] = dose: 0.5 mg/kg/injection, schedule: Q01DX009 (ip), vehicle: saline
[4] = dose: 1.0 mg/kg/injection, schedule: Q01DX009 (ip), vehicle: saline

Measured: T/C

CC(=O)Nc1ccc2nc3ccc(NC(C)=O)cc3[n+](-c3ccccc3)c2c1
inactive: dose: 37.5 mg/kg/injection, schedule: Q01DX Z (ip), vehicle: carboxymethylcellulose (CMC) 104 % of control | dose: 50.0 mg/kg/injection, schedule: Q01DX Z (ip), vehicle: carboxymethylcellulose (CMC) 98 % of control | dose: 75.0 mg/kg/injection, schedule: Q01DX Z (ip), vehicle: carboxymethylcellulose (CMC) 103 % of control | dose: 100.0 mg/kg/injection, schedule: Q01DX Z (ip), vehicle: carboxymethylcellulose (CMC) 101 % of control | dose: 125.0 mg/kg/injection, schedule: Q01DX Z (ip), vehicle: carboxymethylcellulose (CMC) 107 % of control | dose: 250.0 mg/kg/injection, schedule: Q01DX Z (ip), vehicle: carboxymethylcellulose (CMC) 97 % of control

O=CC(NC(=O)N(CCCl)N=O)C(O)C(O)C(O)CO (configuration not stated)
inactive: dose: 4.0 mg/kg/injection, schedule: Q01DX001 (ip), vehicle: carboxymethylcellulose (CMC) 111 % of control | dose: 6.0 mg/kg/injection, schedule: Q01DX001 (ip), vehicle: carboxymethylcellulose (CMC) 111 % of control | dose: 9.0 mg/kg/injection, schedule: Q01DX001 (ip), vehicle: carboxymethylcellulose (CMC) 112 % of control | dose: 9.0 mg/kg/injection, schedule: Q01DX001 (ip), vehicle: saline 110 % of control | dose: 13.0 mg/kg/injection, schedule: Q01DX001 (ip), vehicle: carboxymethylcellulose (CMC) 123 % of control | dose: 13.0 mg/kg/injection, schedule: Q01DX001 (ip), vehicle: saline 109 % of control | dose: 20.0 mg/kg/injection, schedule: Q01DX001 (ip), vehicle: carboxymethylcellulose (CMC) 119 % of control | dose: 20.0 mg/kg/injection, schedule: Q01DX001 (ip), vehicle: saline 112 % of control | dose: 30.0 mg/kg/injection, schedule: Q01DX001 (ip), vehicle: carboxymethylcellulose (CMC) 119 % of control | dose: 30.0 mg/kg/injection, schedule: Q01DX001 (ip), vehicle: saline 117 % of control | dose: 45.0 mg/kg/injection, schedule: Q01DX001 (ip), vehicle: carboxymethylcellulose (CMC) 111 % of control | dose: 45.0 mg/kg/injection, schedule: Q01DX001 (ip), vehicle: saline 106 % of control

OCCN1CCN(CCCN2c3ccccc3Sc3ccc(C(F)(F)F)cc32)CC1
inactive: dose: 12.5 mg/kg/injection, schedule: Q04DX003 (ip), vehicle: saline 102 % of control | [1] 106 % of control | [2] 112 % of control | dose: 100.0 mg/kg/injection, schedule: Q04DX003 (ip), vehicle: saline 94 % of control

O=c1cnn(C2OC(CO)C(O)C2O)c(=O)[nH]1 (configuration not stated)
active: dose: 750.0 mg/kg/injection, schedule: Q01DX Z (ip), vehicle: saline 158 % of control

C[C@@H]1C[C@@H]([C@H](O)CC2CC(=O)NC(=O)C2)C(=O)[C@@H](C)C1
inactive: dose: 16.0 mg/kg/injection, schedule: Q01DX015 (ip), vehicle: saline 121 % of control | dose: 24.0 mg/kg/injection, schedule: Q01DX015 (ip), vehicle: saline 120 % of control | dose: 36.0 mg/kg/injection, schedule: Q01DX015 (ip), vehicle: saline 116 % of control | dose: 44.0 mg/kg/injection, schedule: Q01DX001 (ip), vehicle: saline 98 % of control | dose: 67.0 mg/kg/injection, schedule: Q01DX001 (ip), vehicle: saline 104 % of control | dose: 100.0 mg/kg/injection, schedule: Q01DX001 (ip), vehicle: saline 103 % of control

COCCOCCN1CCN(CCCN2c3ccccc3Sc3ccc(C(F)(F)F)cc32)CC1
inactive: [1] 100 % of control | dose: 35.0 mg/kg/injection, schedule: Q04DX003 (ip), vehicle: saline 108 % of control | [2] 93 % of control

O=NN(CCCl)C(=O)NC1CCC(NC(=O)N(CCCl)N=O)CC1 (configuration not stated)
inactive: dose: 38.0 mg/kg/injection, schedule: Q01DX001 (oral), vehicle: other 119 % of control
active: dose: 48.0 mg/kg/injection, schedule: Q01DX001 (ip), vehicle: other 151 % of control and 157 % of control | dose: 84.0 mg/kg/injection, schedule: Q01DX001 (oral), vehicle: other 154 % of control | dose: 96.0 mg/kg/injection, schedule: Q01DX001 (ip), vehicle: other 276 % of control and 370 % of control | dose: 127.0 mg/kg/injection, schedule: Q01DX001 (ip), vehicle: carboxymethylcellulose (CMC) 232 % of control | dose: 171.0 mg/kg/injection, schedule: Q01DX001 (oral), vehicle: other 209 % of control | dose: 191.0 mg/kg/injection, schedule: Q01DX001 (ip), vehicle: other 291 % of control and 389 % of control | dose: 255.0 mg/kg/injection, schedule: Q01DX001 (ip), vehicle: carboxymethylcellulose (CMC) 307 % of control | dose: 319.0 mg/kg/injection, schedule: Q01DX001 (oral), vehicle: other 198 % of control and 260 % of control | dose: 383.0 mg/kg/injection, schedule: Q01DX001 (ip), vehicle: other 154 % of control | dose: 510.0 mg/kg/injection, schedule: Q01DX001 (ip), vehicle: carboxymethylcellulose (CMC) 154 % of control | dose: 638.0 mg/kg/injection, schedule: Q01DX001 (oral), vehicle: other 268 % of control and 398 % of control

O=C1N[C@@H]([C@H]2CC[C@H](Cl)CN2)C(=O)N[C@H]1[C@H]1CC[C@H](Cl)CN1
inactive: [3] 110 % of control | dose: 1.0 mg/kg/injection, schedule: Q01DX001 (ip), vehicle: saline 102 % of control | [4] 118 % of control | dose: 2.0 mg/kg/injection, schedule: Q01DX001 (ip), vehicle: saline 103 % of control and 100 % of control | dose: 4.0 mg/kg/injection, schedule: Q01DX001 (ip), vehicle: saline 103 % of control and 119 % of control | dose: 8.0 mg/kg/injection, schedule: Q01DX001 (ip), vehicle: saline 105 % of control and 123 % of control

O=C1C(N2CC2)=C(N2CC2)C(=O)C(N2CC2)=C1N1CC1
inactive: dose: 0.02 mg/kg/injection, schedule: Q01DX009 (ip), vehicle: saline 102 % of control | dose: 0.04 mg/kg/injection, schedule: Q01DX009 (ip), vehicle: saline 120 % of control | dose: 0.16 mg/kg/injection, schedule: Q01DX009 (ip), vehicle: saline 112 % of control

CC(Cl)CNC(=O)N(CC(C)Cl)N=O (configuration not stated)
inactive: dose: 250.0 mg/kg/injection, schedule: Q01DX001 (ip), vehicle: carboxymethylcellulose (CMC) 107 % of control | dose: 500.0 mg/kg/injection, schedule: Q01DX001 (ip), vehicle: carboxymethylcellulose (CMC) 112 % of control
active: dose: 1000.0 mg/kg/injection, schedule: Q01DX001 (ip), vehicle: carboxymethylcellulose (CMC) 204 % of control

CC1CCCC(NC(=O)N(CCCl)N=O)C1 (configuration not stated)
active: dose: 27.0 mg/kg/injection, schedule: Q01DX001 (ip), vehicle: other 174 % of control | dose: 42.0 mg/kg/injection, schedule: Q01DX001 (ip), vehicle: other 150 % of control and 251 % of control | dose: 62.0 mg/kg/injection, schedule: Q01DX001 (ip), vehicle: other 256 % of control and 273 % of control | dose: 71.0 mg/kg/injection, schedule: Q01DX001 (ip), vehicle: other 261 % of control | dose: 93.0 mg/kg/injection, schedule: Q01DX001 (ip), vehicle: other 205 % of control and 223 % of control
inactive: dose: 286.0 mg/kg/injection, schedule: Q01DX001 (ip), vehicle: other 92 % of control

O=NN(CCBr)C(=O)NCCBr
inactive: dose: 133.0 mg/kg/injection, schedule: Q01DX001 (ip), vehicle: carboxymethylcellulose (CMC) 112 % of control

COC1=C(N2CC2)C(=O)C(OC)=C(N2CC2)C1=O
inactive: dose: 0.12 mg/kg/injection, schedule: Q01DX009 (ip), vehicle: saline 101 % of control | dose: 0.25 mg/kg/injection, schedule: Q01DX009 (ip), vehicle: saline 95 % of control | [3] 104 % of control and 106 % of control and 98 % of control | [4] 105 % of control and 111 % of control and 121 % of control | dose: 2.0 mg/kg/injection, schedule: Q01DX009 (ip), vehicle: saline 114 % of control and 117 % of control | dose: 4.0 mg/kg/injection, schedule: Q01DX009 (ip), vehicle: saline 86 % of control

CN(N=O)C(N)=O
inactive: dose: 18.0 mg/kg/injection, schedule: Q01DX001 (ip), vehicle: saline 102 % of control | dose: 36.0 mg/kg/injection, schedule: Q01DX001 (ip), vehicle: saline 110 % of control
active: dose: 72.0 mg/kg/injection, schedule: Q01DX001 (ip), vehicle: saline 152 % of control

O=NN(CCCl)C(=O)NC(Cc1ccccc1)C(=O)O (configuration not stated)
inactive: dose: 18.0 mg/kg/injection, schedule: Q01DX001 (ip), vehicle: gum acacia 119 % of control | dose: 28.0 mg/kg/injection, schedule: Q01DX001 (ip), vehicle: gum acacia 119 % of control | dose: 42.0 mg/kg/injection, schedule: Q01DX001 (ip), vehicle: gum acacia 117 % of control | dose: 63.0 mg/kg/injection, schedule: Q01DX001 (ip), vehicle: gum acacia 120 % of control | dose: 112.0 mg/kg/injection, schedule: Q01DX001 (ip), vehicle: gum acacia 103 % of control
